Source: patent publication US12377175B2, “Trifunctional constructs with tunable pharmacokinetics useful in imaging and anti-tumor therapies” (Cornell University, priority 2016, dated 2025)

How the values were obtained:
[1] = tested on: LNCaP xenograft tumor-bearing mice; assay: PET/CT imaging of 66Ga-RPS ligands in LNCaP xenograft mice; assay type: in vivo, mouse; conditions: 66Ga PET/CT; for maximum uptake in the tumor (image-derived): over 1, 3, 6 and 24 h post injection
Description: (§1) Inoculation of mice with xenografts: All animal studies were approved by the Institutional Animal Care and Use Committee of Weill Cornell Medicine and were undertaken in accordance with the guidelines set forth by the USPHS Policy on Humane Care and Use of Laboratory Animals. Animals were housed under standard conditions in approved facilities with 12 h light/dark cycles. Food and water was provided ad libitum throughout the course of the studies. Hairless male nu/nu mice were purchased from the Jackson Laboratory. For inoculation in mice, LNCaP cells were suspended at 4×10^7 cells/mL in a 1:1 mixture of PBS:Matrigel (BD Biosciences). Each mouse was injected in the left flank with 0.25 mL of the cell suspension. The mice were imaged when the tumors reached approximately 200-400 mm^3, while biodistributions were conducted when tumors were in the range 100-400 mm^3.
Imaging of ^66Ga-RPS ligands in LNCaP xenograft mice: LNCaP xenograft tumor-bearing mice (2-3 per compound) injected intravenously with a bolus injection of 0.56-5.4 MBq (15-145 μCi) of the ^66Ga-labeled ligand. The specific activity of the tracers was in the range 14.8-47 MBq/μmol (0.4-1.27 mCi/μmol). The mice were imaged using PET/CT (Inveon™; Siemens Medical Solutions, Inc.) at 1, 3, 6 and 24 h post-injection following inhalation anesthetization with isoflurane. Total acquisition time was 30 min for the 1 h, 3 h and 6 h images, and 60 min for 24 h time point. A CT scan was obtained immediately before the acquisition for both anatomical co-registration and attenuation correction. Images were reconstructed using the Inveon™ software supplied by the vendor. Image-derived tumor and kidney uptake was estimated by comparison to a 10% injected dose […] standard introduced into the imaging field of view. The standard was prepared by dilution of 10% of the injected activity to 1 mL with saline. Volumes of interest (VOIs) were drawn with the aid of the CT and confirmed by PET. The contents of the VOIs were integrated and the calculated counts were converted to […] by direct comparison to the aforementioned standard following correction for activity injected.

[2] = tested on: LNCaP xenograft tumor-bearing mice; assay: Biodistribution studies of 177Lu-labeled ligands in LNCaP xenograft mice; assay type: in vivo, mouse; conditions: for Max. Tumor Uptake: corresponding 177Lu-labeled compound, 4 h p.i. (a)
Description: as §1
Biodistribution studies of 177Lu-labeled ligands in LNCaP xenograft mice: LNCaP xenograft tumor-bearing mice (5 per time point per compound) were injected intravenously with a bolus injection of 348-851 kBq (9.4-23 μCi) and 37-50 ng ([…]) of each ligand. The mice were sacrificed at 4, 24 and 96 h post injection. A blood sample was removed, and a full biodistribution study was conducted on the following organs (with contents): heart, lungs, liver, small intestine, large intestine, stomach, spleen, pancreas, kidneys, muscle, bone and tumor. Tissues were weighed and counted on a 2470 Wizard^2 Automatic Gamma Counter (Perkin Elmer). Counts were corrected for decay and for activity injected, and tissue uptake was expressed as percent injected dose per gram (% ID/g). Standard error measurement was calculated for each data point.

Row | SMILES | time of maximum uptake in the tumor [1] [h] | tumor uptake (image-derived) ([1]; 24 h post injection) [% ID/cm^3] | maximum uptake in the tumor (image-derived) [1] [% ID/cm^3] | Max. Tumor Uptake [2] [% ID/g] | further results
1 | O=C([O-])CN1CCN(CC(=O)[O-])CCN(CC(=O)O)C(Cc2ccc(NC(=S)NCCCC[C@H](NC(=O)CCOCCOCCOCCOCCOCCOCCOCCOCCn3cc(-c4cccc(NC(=O)NCCCC[C@H](NC(=O)N[C@@H](CCC(=O)O)C(=O)O)C(=O)O)c4)nn3)C(=O)N[C@@H](CCCCNC(=O)Cc3ccc(I)cc3)C(=O)O)cc2)CN(CC(=O)[O-])CC1.[66Ga+3] (some centres unmarked) [66Ga-RPS-066] | 3 | 5.5±0.4 | 7.8±0.7 | – | kidney uptake (image-derived) ([1]; 24 h post injection): 0.2±0.1 % ID/cm^3
2 | O=C(O)CC[C@H](NC(=O)N[C@@H](CCCCNC(=O)Nc1cccc(-c2cn(CCOCCOCCOCCOCCOCCOCCOCCOCCC(=O)N[C@@H](CCCCNC(=S)Nc3ccc(CC4CN(CC(=O)O)CCN(CC(=O)O)CCN(CC(=O)O)CCN4CC(=O)O)cc3)C(=O)N[C@@H](CCCCNC(=O)Cc3ccc(I)cc3)C(=O)O)nn2)c1)C(=O)O)C(=O)O (stereo partly drawn) [RPS-066, (((1S)-1-carboxy-5-(3-(3-(1-((29S,32S)-32-carboxy-39-(4-iodophenyl)-27,30,38-trioxo-29-(4-(3-(4-((1,4,7,10-tetrakis(carboxymethyl)-1,4,7,10-tetraazacyclododecan-2-yl)methyl)phenyl)thioureido)butyl)-3,6,9,12,15,18,21,24-octaoxa-28,31,37-triazanonatriacontyl)-1H-1,2,3-triazol-4-yl)phenyl)ureido)pentyl)carbamoyl)-L-glutamic acid] | – | – | – | 18.7 ± 1.1 | –
3 | O=C(O)CC[C@H](NC(=O)N[C@@H](CCCCNC(=O)Nc1cccc(-c2cnnn2CCOCCOCCOCCOCCOCCOCCOCCOCCOCCOCCOCCOCCC(=O)N[C@@H](CCCCNC(=S)Nc2ccc(CC3CN(CC(=O)O)CCN(CC(=O)O)CCN(CC(=O)O)CCN3CC(=O)O)cc2)C(=O)N[C@@H](CCCCNC(=O)Cc2ccc(I)cc2)C(=O)O)c1)C(=O)O)C(=O)O (stereo partly drawn) [RPS-067, (((1S)-1-carboxy-5-(3-(3-(1-((41S,44S)-44-carboxy-51-(4-iodophenyl)-39,42,50-trioxo-41-(4-(3-(4-((1,4,7,10-tetrakis(carboxymethyl)-1,4,7,10-tetraazacyclododecan-2-yl)methyl)phenyl)thioureido)butyl)-3,6,9,12,15,18,21,24,27,30,33,36-dodecaoxa-40,43,49-triazahenpentacontyl)-1H-1,2,3-triazol-5-yl)phenyl)ureido)pentyl)carbamoyl)-L-glutamic acid] | – | – | – | 7.6 ± 1.2 | –
4 | O=C([O-])CN1CCN(CC(=O)[O-])CCN(CC(=O)O)C(Cc2ccc(NC(=S)NCCCC[C@H](NC(=O)CCOCCOCCOCCn3cc(-c4cccc(NC(=O)NCCCC[C@H](NC(=O)N[C@@H](CCC(=O)O)C(=O)O)C(=O)O)c4)nn3)C(=O)N[C@@H](CCCCNC(=O)Cc3ccc(I)cc3)C(=O)O)cc2)CN(CC(=O)[O-])CC1.[66Ga+3] (some centres unmarked) [66Ga-RPS-063] | 6 | 7.9±3.0 | 9.5±2.4 | – | –
5 | O=C(O)CCC(NC(=O)NC(CCCCNC(=O)Nc1cccc(-c2cnnn2CC(=O)NC(CCCCNC(=S)Nc2ccc(CC3CN(CC(=O)O)CCN(CC(=O)O)CCN(CC(=O)O)CCN3CC(=O)O)cc2)C(=O)NC(CCCCNC(=O)Cc2ccc(I)cc2)C(=O)O)c1)C(=O)O)C(=O)O (centres unmarked) [177Lu-RPS-068, metal not drawn] | – | – | – | – | blood activity (comparison within the series) ([2]; 4 h p.i.): highest blood activity
6 | O=C([O-])CN1CCN(CC(=O)[O-])CCN(CC(=O)O)C(Cc2ccc(NC(=S)NCCCC[C@H](NC(=O)CCOCCOCCOCCOCCn3cc(-c4cccc(NC(=O)NCCCC[C@H](NC(=O)N[C@@H](CCC(=O)O)C(=O)O)C(=O)O)c4)nn3)C(=O)N[C@@H](CCCCNC(=O)Cc3ccc(I)cc3)C(=O)O)cc2)CN(CC(=O)[O-])CC1.[66Ga+3] (some centres unmarked) [66Ga-RPS-061] | – | 6.1±1.1 | – | – | kidney uptake (image-derived) ([1]; 1 h post injection): 10.5±2.1 % ID/cm^3
7 | O=C(O)CC[C@H](NC(=O)N[C@@H](CCCCNC(=O)Nc1cccc(-c2cn(CCOCCOCCOCCC(=O)N[C@@H](CCCCNC(=S)Nc3ccc(CC4CN(CC(=O)O)CCN(CC(=O)O)CCN(CC(=O)O)CCN4CC(=O)O)cc3)C(=O)N[C@@H](CCCCNC(=O)Cc3ccc(I)cc3)C(=O)O)nn2)c1)C(=O)O)C(=O)O (stereo partly drawn) [RPS-063, (((1S)-1-carboxy-5-(3-(3-(1-((14S,17S)-17-carboxy-24-(4-iodophenyl)-12,15,23-trioxo-14-(4-(3-(4-((1,4,7,10-tetrakis(carboxymethyl)-1,4,7,10-tetraazacyclododecan-2-yl)methyl)phenyl)thioureido)butyl)-3,6,9-trioxa-13,16,22-triazatetracosyl)-1H-1,2,3-triazol-4-yl)phenyl)ureido)pentyl)carbamoyl)-L-glutamic acid] | – | – | – | 30.0 ± 6.9 | –
8 | O=C(O)CC[C@H](NC(=O)N[C@@H](CCCCNC(=O)Nc1cccc(-c2cn(CCOCCOCCOCCOCCOCCOCCC(=O)N[C@@H](CCCCNC(=S)Nc3ccc(CC4CN(CC(=O)O)CCN(CC(=O)O)CCN(CC(=O)O)CCN4CC(=O)O)cc3)C(=O)N[C@@H](CCCCNC(=O)Cc3ccc(I)cc3)C(=O)O)nn2)c1)C(=O)O)C(=O)O (stereo partly drawn) [RPS-069, (((1S)-1-carboxy-5-(3-(3-(1-((23S,26S)-26-carboxy-33-(4-iodophenyl)-21,24,32-trioxo-23-(4-(3-(4-((1,4,7,10-tetrakis(carboxymethyl)-1,4,7,10-tetraazacyclododecan-2-yl)methyl)phenyl)thioureido)butyl)-3,6,9,12,15,18-hexaoxa-22,25,31-triazatritriacontyl)-1H-1,2,3-triazol-4-yl)phenyl)ureido)pentyl)carbamoyl)-L-glutamic acid] | – | – | – | 17.0 ± 2.1 | –
9 | O=C([O-])CN1CCN(CC(=O)[O-])CCN(CC(=O)O)C(Cc2ccc(NC(=S)NCCCC[C@H](NC(=O)CCOCCOCCOCCOCCOCCOCCn3cc(-c4cccc(NC(=O)NCCCC[C@H](NC(=O)N[C@@H](CCC(=O)O)C(=O)O)C(=O)O)c4)nn3)C(=O)N[C@@H](CCCCNC(=O)Cc3ccc(I)cc3)C(=O)O)cc2)CN(CC(=O)[O-])CC1.[66Ga+3] (some centres unmarked) [66Ga-RPS-069] | – | 7.0±3.9 | – | – | –
10 | O=C(O)CC[C@H](NC(=O)N[C@@H](CCCCNC(=O)Nc1cccc(-c2cn(CCOCCOCCOCCOCCC(=O)N[C@@H](CCCCNC(=S)Nc3ccc(CC4CN(CC(=O)O)CCN(CC(=O)O)CCN(CC(=O)O)CCN4CC(=O)O)cc3)C(=O)N[C@@H](CCCCNC(=O)Cc3ccc(I)cc3)C(=O)O)nn2)c1)C(=O)O)C(=O)O (stereo partly drawn) [RPS-061, (((1S)-1-carboxy-5-(3-(3-(1-((17S,20S)-20-carboxy-27-(4-iodophenyl)-15,18,26-trioxo-17-(4-(3-(4-((1,4,7,10-tetrakis(carboxymethyl)-1,4,7,10-tetraazacyclododecan-2-yl)methyl)phenyl)thioureido)butyl)-3,6,9,12-tetraoxa-16,19,25-triazaheptacosyl)-1H-1,2,3-triazol-4-yl)phenyl)ureido)pentyl)carbamoyl)-L-glutamic acid] | – | – | – | 20.4 ± 3.1 | –
11 | O=C(O)CCC(NC(=O)NC(CCCCNC(=O)C(Cc1ccc2ccccc2c1)NC(=O)C1CCC(CNC(=O)CN2CCN(CC(=O)O)CCN(CC(=O)O)CCN(CC(=O)O)CC2)CC1)C(=O)O)C(=O)O (centres unmarked) [66Ga-PSMA-617, metal not drawn, reference compound] | 1 | – | 3.1±0.4 | – | maximum kidney uptake (image-derived) [1]: 0.4±0.1 % ID/cm^3; kidney uptake (image-derived) ([1]; 24 h post injection): 0.1±0.1 % ID/cm^3
12 | O=C(O)CCC(NC(=O)NC(CCCCNC(=O)Nc1cccc(-c2cnnn2CC(=O)NC(CCCCNC(=S)Nc2ccc(CC3CN(CC(=O)O)CCN(CC(=O)O)CCN(CC(=O)O)CCN3CC(=O)O)cc2)C(=O)NC(CCCCNC(=O)Cc2ccc(I)cc2)C(=O)O)c1)C(=O)O)C(=O)O (centres unmarked) [66Ga-RPS-068, metal not drawn] | 3 | 8.3±2.8 | 9.7±2.0 | – | –
